Measured values taken from ChEMBL document CHEMBL1140040, “Synthesis and cytotoxic activity of some novel polycyclic gamma-butyrolactones” (Bioorg Med Chem Lett, 2008).

What was measured:
[1] = system: COLO 205; assay: Cytotoxicity against human COLO205 cells assessed as age growth inhibition at 50 uM after 48 hrs by sulforhodamine B assay; type: functional; conditions: COLO 205, 48 h, read-out: GI
[2] = system: COLO 205; assay: Cytotoxicity against human COLO205 cells assessed as age growth inhibition at 100 uM after 48 hrs by sulforhodamine B assay; type: functional; conditions: COLO 205, 48 h, read-out: GI
[3] = system: IGROV-1; assay: Cytotoxicity against human IGROV1 cells assessed as age growth inhibition at 10 uM after 48 hrs by sulforhodamine B assay; type: functional; conditions: IGROV-1, 48 h, read-out: GI
[4] = system: IGROV-1; assay: Cytotoxicity against human IGROV1 cells assessed as age growth inhibition at 50 uM after 48 hrs by sulforhodamine B assay; type: functional; conditions: IGROV-1, 48 h, read-out: GI
[5] = system: IGROV-1; assay: Cytotoxicity against human IGROV1 cells assessed as age growth inhibition at 100 uM after 48 hrs by sulforhodamine B assay; type: functional; conditions: IGROV-1, 48 h, read-out: GI
[6] = system: SK-OV-3; assay: Cytotoxicity against human SKOV3 cells assessed as age growth inhibition at 10 uM after 48 hrs by sulforhodamine B assay; type: functional; conditions: SK-OV-3, 48 h, read-out: GI
[7] = system: SK-OV-3; assay: Cytotoxicity against human SKOV3 cells assessed as age growth inhibition at 50 uM after 48 hrs by sulforhodamine B assay; type: functional; conditions: SK-OV-3, 48 h, read-out: GI
[8] = system: SK-OV-3; assay: Cytotoxicity against human SKOV3 cells assessed as age growth inhibition at 100 uM after 48 hrs by sulforhodamine B assay; type: functional; conditions: SK-OV-3, 48 h, read-out: GI
[9] = system: DU-145; assay: Cytotoxicity against human DU145 cells assessed as age growth inhibition at 10 uM after 48 hrs by sulforhodamine B assay; type: functional; conditions: DU-145, 48 h, read-out: GI
[10] = system: DU-145; assay: Cytotoxicity against human DU145 cells assessed as age growth inhibition at 50 uM after 48 hrs by sulforhodamine B assay; type: functional; conditions: DU-145, 48 h, read-out: GI
[11] = system: DU-145; assay: Cytotoxicity against human DU145 cells assessed as age growth inhibition at 100 uM after 48 hrs by sulforhodamine B assay; type: functional; conditions: DU-145, 48 h, read-out: GI
[12] = system: HEp-2; assay: Cytotoxicity against human HEP2 cells assessed as age growth inhibition at 10 uM after 48 hrs by sulforhodamine B assay; type: functional; conditions: HEp-2, 48 h, read-out: GI
[13] = system: HEp-2; assay: Cytotoxicity against human HEP2 cells assessed as age growth inhibition at 50 uM after 48 hrs by sulforhodamine B assay; type: functional; conditions: HEp-2, 48 h, read-out: GI
[14] = system: HEp-2; assay: Cytotoxicity against human HEP2 cells assessed as age growth inhibition at 100 uM after 48 hrs by sulforhodamine B assay; type: functional; conditions: HEp-2, 48 h, read-out: GI
[15] = system: SF-295; assay: Cytotoxicity against human SF295 cells assessed as age growth inhibition at 10 uM after 48 hrs by sulforhodamine B assay; type: functional; conditions: SF-295, 48 h, read-out: GI
[16] = system: SF-295; assay: Cytotoxicity against human SF295 cells assessed as age growth inhibition at 50 uM after 48 hrs by sulforhodamine B assay; type: functional; conditions: SF-295, 48 h, read-out: GI
[17] = system: SF-295; assay: Cytotoxicity against human SF295 cells assessed as age growth inhibition at 100 uM after 48 hrs by sulforhodamine B assay; type: functional; conditions: SF-295, 48 h, read-out: GI
[18] = system: A549; assay: Antiproliferative activity against human A549 cells after 48 hrs by sulforhodamine B assay; type: functional, cell-based; conditions: A549, 48 h
[19] = system: HOP-62; assay: Antiproliferative activity against human HOP62 cells after 48 hrs by sulforhodamine B assay; type: functional, cell-based; conditions: HOP-62, 48 h
[20] = system: HCT-15; assay: Antiproliferative activity against human HCT15 cells after 48 hrs by sulforhodamine B assay; type: functional, cell-based; conditions: HCT-15, 48 h
[21] = system: COLO 205; assay: Antiproliferative activity against human COLO205 cells after 48 hrs by sulforhodamine B assay; type: functional, cell-based; conditions: COLO 205, 48 h
[22] = system: IGROV-1; assay: Antiproliferative activity against human IGROV1 cells after 48 hrs by sulforhodamine B assay; type: functional, cell-based; conditions: IGROV-1, 48 h
[23] = system: SK-OV-3; assay: Antiproliferative activity against human SKOV3 cells after 48 hrs by sulforhodamine B assay; type: functional, cell-based; conditions: SK-OV-3, 48 h
[24] = system: DU-145; assay: Antiproliferative activity against human DU145 cells after 48 hrs by sulforhodamine B assay; type: functional, cell-based; conditions: DU-145, 48 h
[25] = system: HEp-2; assay: Antiproliferative activity against human HEP2 cells after 48 hrs by sulforhodamine B assay; type: functional, cell-based; conditions: HEp-2, 48 h
[26] = system: SF-295; assay: Antiproliferative activity against human SF295 cells after 48 hrs by sulforhodamine B assay; type: functional, cell-based; conditions: SF-295, 48 h
[27] = system: A549; assay: Cytotoxicity against human A549 cells assessed as age growth inhibition at 10 uM after 48 hrs by sulforhodamine B assay; type: functional; conditions: A549, 48 h, read-out: GI
[28] = system: A549; assay: Cytotoxicity against human A549 cells assessed as age growth inhibition at 50 uM after 48 hrs by sulforhodamine B assay; type: functional; conditions: A549, 48 h, read-out: GI
[29] = system: A549; assay: Cytotoxicity against human A549 cells assessed as age growth inhibition at 100 uM after 48 hrs by sulforhodamine B assay; type: functional; conditions: A549, 48 h, read-out: GI
[30] = system: HOP-62; assay: Cytotoxicity against human HOP62 cells assessed as age growth inhibition at 10 uM after 48 hrs by sulforhodamine B assay; type: functional; conditions: HOP-62, 48 h, read-out: GI
[31] = system: HOP-62; assay: Cytotoxicity against human HOP62 cells assessed as age growth inhibition at 50 uM after 48 hrs by sulforhodamine B assay; type: functional; conditions: HOP-62, 48 h, read-out: GI
[32] = system: HOP-62; assay: Cytotoxicity against human HOP62 cells assessed as age growth inhibition at 100 uM after 48 hrs by sulforhodamine B assay; type: functional; conditions: HOP-62, 48 h, read-out: GI
[33] = system: HCT-15; assay: Cytotoxicity against human HCT15 cells assessed as age growth inhibition at 10 uM after 48 hrs by sulforhodamine B assay; type: functional; conditions: HCT-15, 48 h, read-out: GI
[34] = system: HCT-15; assay: Cytotoxicity against human HCT15 cells assessed as age growth inhibition at 50 uM after 48 hrs by sulforhodamine B assay; type: functional; conditions: HCT-15, 48 h, read-out: GI
[35] = system: HCT-15; assay: Cytotoxicity against human HCT15 cells assessed as age growth inhibition at 100 uM after 48 hrs by sulforhodamine B assay; type: functional; conditions: HCT-15, 48 h, read-out: GI
[36] = system: COLO 205; assay: Cytotoxicity against human COLO205 cells assessed as age growth inhibition at 10 uM after 48 hrs by sulforhodamine B assay; type: functional; conditions: COLO 205, 48 h, read-out: GI

With `CC1(C)CCC[C@@]2(C)C1=C[C@H]1C(=O)O[C@H](c3ccco3)[C@H]12` the inhibition of growth at 50 µM [1] was 20%, the inhibition of growth at 100 µM [2] was 64% and the inhibition of growth at 10 µM [3] was 1%. The inhibition of growth at 50 µM [4] was 24%, the inhibition of growth at 100 µM [5] was 67% and the inhibition of growth at 10 µM [6] was 6%. It also gave an inhibition of growth at 50 µM [7] of 9%, an inhibition of growth at 100 µM [8] of 57% and an inhibition of growth at 10 µM [9] of 17%. The inhibition of growth at 50 µM [10] was 37%, the inhibition of growth at 100 µM [11] was 76% and the inhibition of growth at 10 µM [12] was 8%. It also gave an inhibition of growth at 50 µM [13] of 19%, an inhibition of growth at 100 µM [14] of 52% and an inhibition of growth at 10 µM [15] of 0%. The inhibition of growth at 50 µM [16] was 17%, the inhibition of growth at 100 µM [17] was 38% and the IC50 [18] was > 100 µM. For the same molecule, the IC50 [19] was > 100 µM, the IC50 [20] was 50 µM and the IC50 [21] was 79.5 µM. For the same molecule, the IC50 [22] was 79.2 µM, the IC50 [23] was 91 µM and the IC50 [24] was 63.3 µM. The IC50 [25] was 98.8 µM, the IC50 [26] was > 100 µM and the inhibition of growth at 10 µM [27] was 19%. The inhibition of growth at 50 µM [28] was 20%, the inhibition of growth at 100 µM [29] was 25% and the inhibition of growth at 10 µM [30] was 2%. It also gave an inhibition of growth at 50 µM [31] of 8%, an inhibition of growth at 100 µM [32] of 46% and an inhibition of growth at 10 µM [33] of 14%. The inhibition of growth at 50 µM [34] was 50%, the inhibition of growth at 100 µM [35] was 56% and the inhibition of growth at 10 µM [36] was 16%.

In the case of `CO[C@@]12[C@H](COC(N)=O)C3=C(C(=O)C(C)=C(N)C3=O)N1C[C@@H]1N[C@@H]12` [MITOMYCIN], the inhibition of growth at 10 µM [9] is reported as 63% and the inhibition of growth at 10 µM [27] is reported as 55%.

For `Cc1ccc([C@H]2OC(=O)[C@@H]3C=C4C(C)(C)CCC[C@]4(C)[C@H]23)cc1`, the inhibition of growth at 50 µM [1] was 22%, the inhibition of growth at 100 µM [2] was 34% and the inhibition of growth at 10 µM [3] was 0%. The inhibition of growth at 50 µM [4] was 29%, the inhibition of growth at 100 µM [5] was 40% and the inhibition of growth at 10 µM [6] was 19%. For the same molecule, the inhibition of growth at 50 µM [7] was 29%, the inhibition of growth at 100 µM [8] was 30% and the inhibition of growth at 10 µM [9] was 6%. For the same molecule, the inhibition of growth at 50 µM [10] was 10%, the inhibition of growth at 100 µM [11] was 35% and the inhibition of growth at 10 µM [12] was 9%. The inhibition of growth at 50 µM [13] was 25%, the inhibition of growth at 100 µM [14] was 27% and the inhibition of growth at 10 µM [15] was 19%. The inhibition of growth at 50 µM [16] was 20%, the inhibition of growth at 100 µM [17] was 21% and the IC50 [18] was > 100 µM. The IC50 [19] was > 100 µM, the IC50 [20] was 78 µM and the IC50 [21] was > 100 µM. For the same molecule, the IC50 [22] was > 100 µM, the IC50 [23] was > 100 µM and the IC50 [24] was > 100 µM. For the same molecule, the IC50 [25] was > 100 µM, the IC50 [26] was > 100 µM and the inhibition of growth at 10 µM [27] was 13%. For the same molecule, the inhibition of growth at 50 µM [28] was 29%, the inhibition of growth at 100 µM [29] was 42% and the inhibition of growth at 10 µM [30] was 2%. For the same molecule, the inhibition of growth at 50 µM [31] was 13%, the inhibition of growth at 100 µM [32] was 21% and the inhibition of growth at 10 µM [33] was 11%. It also gave an inhibition of growth at 50 µM [34] of 44%, an inhibition of growth at 100 µM [35] of 55% and an inhibition of growth at 10 µM [36] of 10%.

`COc1cccc2c1C(=O)c1c(O)c3c(c(O)c1C2=O)C[C@@](O)(C(=O)CO)C[C@@H]3O[C@H]1C[C@H](N)[C@H](O)[C@H](C)O1` [DOXORUBICIN] was tested, and the inhibition of growth at 10 µM [9] was 64%, the inhibition of growth at 10 µM [15] was 54% and the inhibition of growth at 10 µM [27] was 47%. For the same molecule, the inhibition of growth at 10 µM [30] was 69% and the inhibition of growth at 10 µM [33] was 54%.
